≈ marks a conversion by molar mass, not a printed value.
test system: Coxsackie virus type B3 (COX-B3); assay: Anti-Coxsackie virus type B3 (COX-B3) activity, CPE in Vero cells; format: cell-based; conditions: Reed-Muench
Protocol: With Vero (African green monkey kidney) cells as viral hosts, inhibitory effects of the compounds of present invention on the grades of pathological lesions by coxsackievirus B3 (COX-B3), B6 (COX-B6) viruses in Vero cells were determined. The measured results of viral inhibitory activity of the compounds are shown in Table 3 and Table 4; wherein RBV is the control drug ribavirin. The inhibitory activities of the measured compounds against coxsackievirus B3, B6 were stronger than the control.
Screening of Anti-B3, B6 Type Coxsackie Viruses (COX-B3, COX-B6) Activity of the Samples
Prepare stock solutions of COX-B3 (or COX-B6) virus strains as well as tested compounds in DMSO before use. Before tests, dilute the stock solution with culture solution into a certain concentration and then dilute 3 times to make a total of eight dilutions. Use ribavirin (RBV) as positive control. Test procedures are as follows: seed Vero cells into 96-well culture plates, infect with 10^−5 Coxsackie virus of B3 (or B6) type, 24 hours later; adsorb subsequently for 2 hours, then discard the virus solution, add in the sample compounds and the positive control according to the abovementioned dilutions, set cell control wells and virus control wells simultaneously. When the cytopathic effect (CPE) of cells in the virus control wells reach 4+, observe CPE of the cells in each group. Use Reed-Muench method to calculate 50% inhibitory concentration (IC50) of the sample compounds against coxsackie virus B3 (or B6) type.

IC50 [µg/mL] | SMILES
0.57 (≈ 1.78 µM) | COc1ccc(-c2cnco2)cc1NCc1csc(Cl)c1 [Compound 34, N-(5-chlorothien-3-ylmethyl)-2-methoxy-5-(oxazol-5-yl) aniline]
0.57 (≈ 1.56 µM) | COc1ccc(-c2cnco2)cc1NCc1csc(Br)c1 [Compound 35, N-(5-bromothien-3-ylmethyl)-2-methoxy-5-(oxazol-5-yl) aniline]
0.59 (≈ 1.63 µM) | COc1ccc(-c2cnco2)cc1NCc1csc(-c2ccccc2)c1 [Compound 36, N-(5-phenylthien-3-ylmethyl)-2-methoxy-5-(oxazol-5-yl) aniline]
0.63 (≈ 2.18 µM) | COc1ccc(-c2cnco2)cc1NCC1CCOCC1 [Compound 37, N-(tetrahydropyran-4-ylmethyl)-2-methoxy-5-oxazol-5-yl aniline]
0.88 (≈ 3.12 µM) | COc1ccc(-c2cnco2)cc1NCc1cccnn1 [Compound 38, N-(pyridazin-3-yl-methyl)-2-methoxy-5-oxazol-5-yl aniline]
11.1 (≈ 39.1 µM) | COc1ccc(-c2cnco2)cc1/N=C/c1ccsc1 [Compound 39, N-(thien-3-ylmethylene)-2-methoxy-5-(oxazol-5-yl)-aniline]
0.26 (≈ 0.606 µM) | COc1ccc(-c2cnco2)cc1NCc1csc2c(C)c(Br)ccc12 [Compound 40, N-(6-bromo-7-methyl-benzothien-3-ylmethyl)-2-methoxy-5-oxazol-5-yl aniline]
1.03 (≈ 2.67 µM) | COc1cc(NCc2c(Cl)nc(Cl)nc2Cl)ccc1-c1cnco1 [Compound 43, N-(2,4,6-trichloropyrimidin-5-ylmethyl)-3-methoxy-4-(oxazol-5-yl) aniline]
0.69 (≈ 1.96 µM) | COc1cc(NCc2ncc(Cl)nc2Cl)ccc1-c1cnco1 [Compound 44, N-(3,5-dichloroperazin-2-ylmethyl)-3-methoxy-4-(oxazol-5-yl) aniline]
0.88 (≈ 2.52 µM) | COc1ccc(-c2cnco2)cc1NCc1ccc(Br)o1 [Compound 45, N-(5-bromofuran-2-ylmethyl)-2-methoxy-5-(oxazol-5-yl) aniline]
0.76 (≈ 2 µM) | COc1ccc(-c2cnco2)cc1NCc1ccc(-c2cccc(Cl)c2)o1 [Compound 46, N-[5-(3-chlorophenyl)-furan-2-ylmethyl]-2-methoxy-5-(oxazol-5-yl) aniline]
0.56 (≈ 1.17 µM) | COc1cc(NCc2ccc(C(=O)Nc3cc(OC)c(OC)c(OC)c3)o2)ccc1-c1cnco1 [Compound 47, N-2-(3,4,5-trimethoxyphenylaminocarbonyl) furan-5-ylmethyl 3-methoxy-4-(oxazol-5-yl)aniline]
0.5 (≈ 1.59 µM) | COCc1ccc(CNc2cc(-c3cnco3)ccc2OC)o1 [Compound 48, N-(5-methoxymethylfuran-2-ylmethyl)-2-methoxy-5-(oxazol-5-yl) aniline]
0.46 (≈ 1.44 µM) | COc1ccc(-c2cnco2)cc1NCc1coc2ccccc12 [Compound 50, N-(benzofuran-3-ylmethyl)-2-methoxy-5-(oxazol-5-yl) aniline]
2.47 (≈ 8.72 µM) | COc1cc(NCc2cccn2C)ccc1-c1cnco1 [Compound 51, N-(1-methyl-1H-pyrrol-2-ylmethyl)-3-methoxy-4-(oxazol-5-yl) aniline]
3.22 (≈ 9.27 µM) | COc1cc(-c2cnco2)c(NCc2ccnc3ccccc23)cc1O [Compound 58, 2-methoxy-4-(oxazol-5-yl)-5-[(quinolin-4-ylmethyl)-amino] phenol]
1.88 (≈ 9.88 µM) | COc1ccc(-c2cnco2)cc1N [Compound 67, 2-methoxy-5-(oxazol-5-yl) aniline]
0.98 (≈ 2.85 µM) | COc1cc(NS(=O)(=O)c2ccc(C)cc2)ccc1-c1cnco1 [Compound 69]
155 (≈ 497 µM) | COc1cc(NCCCS(=O)(=O)O)ccc1-c1cnco1 [Compound 70, 3-[3-methoxy-4-(oxazol-5-yl)-anilino]-1-propanesulfonic acid]
0.44 (≈ 1.4 µM) | COc1cc(NCCc2ccc(C)s2)ccc1-c1cnco1 [Compound 72, N-[2-(5-methylthien-2-yl)-ethyl]-3-methoxy-4-(oxazol-5-yl) aniline]
0.35 (≈ 0.923 µM) | COc1cc(NCCc2ccc(Br)s2)ccc1-c1cnco1 [Compound 73, N-[2-(5-bromothien-2-yl)-ethyl]-3-methoxy-4-(oxazol-5-yl) aniline]
0.63 (≈ 1.88 µM) | COc1cc(NCCc2noc3ccccc23)ccc1-c1cnco1 [Compound 74, N-(1,2-benzisoxazol-3-ylethyl)-3-methoxy-4-(oxazol-5-yl) aniline]
0.45 (≈ 1.21 µM) | COc1cc(NCc2cccc3c2oc2ccccc23)ccc1-c1cnco1 [Compound 75, N-(dibenzofuran-4-ylmethyl)-3-methoxy-4-(oxazol-5-yl) aniline]

IC50 [µg/mL] | SMILES
0.24 (≈ 0.763 µM) | COc1cc(CNCc2ccc(C)s2)ccc1-c1cnco1 [Compound 76, N-(5-methylthien-2-ylmethyl)-3-methoxy-4-(oxazol-5-yl) benzylamine]
0.35 (≈ 1.05 µM) | COc1cc(CNCc2ccc(Cl)s2)ccc1-c1cnco1 [Compound 77, N-(5-chlorothien-2-ylmethyl)-3-methoxy-4-(oxazol-5-yl) benzylamine]
0.36 (≈ 1.07 µM) | COc1cc(CNCc2cccc3nonc23)ccc1-c1cnco1 [Compound 78, N-(benzo[1,2,5]oxadiazol-4-ylmethyl)-3-methoxy-4(oxazol-5-yl) benzylamine]
0.35 (≈ 1.06 µM) | Cc1ccc(-c2cnco2)cc1NCc1c(O)ccc2ccccc12 [Compound 79, 1-(2-methyl-5-oxazol-5-ylanilino) methyl-naphthol-2]
0.24 (≈ 0.494 µM) | COc1cc(N(CCc2cc3ccccc3s2)C(=O)C(C)Br)ccc1-c1cnco1 (stereo not shown) [Compound 80, N-(2-benzothien-2-yl-ethyl)-N-(3-methoxy-4-oxazol-5-yl)-2-bromopropionamide]
0.29 (≈ 0.761 µM) | COc1cc(NCCc2nnc3ccccc3c2Cl)ccc1-c1cnco1 [Compound 81, N-[2-(4-chlorocinnolin-3-yl)-ethyl]-3-methoxy-4-(oxazol-5-yl) aniline]
0.33 (≈ 0.857 µM) | COc1cc(NCCc2cc3cc(Cl)ccc3s2)ccc1-c1cnco1 [Compound 82, N-[2-(5-chlorobenzathien-2-yl)-ethyl]-3-methoxy-4-(oxazol-5-yl) aniline]
0.42 (≈ 1 µM) | COc1cc(NCC2=C(Cl)c3cc(Cl)ccc3SC2)ccc1-c1cnco1 [Compound 83, N-(4,6-dichloro-2H-sulfurbenzopyran-3-ylmethyl)-3-methoxy-4-(oxazol-5-yl) aniline]
0.34 (≈ 0.768 µM) | COc1cc(CN(Cc2cc3cc(C)ccc3s2)S(C)(=O)=O)ccc1-c1cnco1 [Compound 84, N-(3-methoxy-4-oxazol-5-yl-benzyl)-N-(5-methyl-benzothien-2-ylmethyl)-methylsulfonamide]
0.44 (≈ 1.26 µM) | COc1cc(CNCc2csc3ccccc23)ccc1-c1cnco1 [Compound 85, N-(benzothien-3-ylmethyl)-3-methoxy-4-(oxazol-5-yl) benzylamine]
0.34 (≈ 0.976 µM) | COc1cc(CNCc2ccc3c(cnn3C)c2)ccc1-c1cnco1 [Compound 86, N-(1-methyl-1H-indazole-5-methyl)-3-methoxy-4-(oxazol-5-yl) benzylamine]
0.35 (≈ 0.877 µM) | COc1cc(CN(C)Cc2csc3ccc(Cl)cc23)ccc1-c1cnco1 [Compound 87, N-methyl-N-(5-chlorobenzothien-3-ylmethyl)-3-methoxy-4-(oxazol-5-yl) benzylamine]
0.36 (≈ 0.866 µM) | COc1cc(NCc2ccc3c(c2)Sc2ccccc2N3C)ccc1-c1cnco1 [Compound 88, N-(10-methyl-10H-phenothiazin-3-ylmethyl)-3-methoxy-4-oxazol-5-yl aniline]
0.26 (≈ 0.815 µM) | Cc1ccc(CNCc2ccc(-c3cnco3)c(Cl)c2)s1 [Compound 89, N-(5-methylthien-2-ylmethyl)-3-chloride-4-oxazol-5-yl benzylamine]
0.26 (≈ 0.665 µM) | Clc1cc(NCc2cccc3c2sc2ccccc23)ccc1-c1cnco1 [Compound 90, N-dibenzothien-4-ylmethyl-3-chloro-4-oxazol-5-yl aniline]
0.28 (≈ 0.785 µM) | Clc1cc(CNCc2cccc3nsnc23)ccc1-c1cnco1 [Compound 91, N-(benzo[1,2,5]-thiadiazol-4-ylmethyl)-3-chloro-4-oxazol-5-yl benzylamine]
0.63 (≈ 1.8 µM) | COc1cc(NCC2=COc3ccc(O)cc3C2)ccc1-c1cnco1 [Compound 92, 3-(3-methoxy-4-oxazol-5-ylanilino) methyl-4-H-benzopyran-6-ol]
0.88 (≈ 2.42 µM) | COc1cc(CNCc2ccc(Br)o2)ccc1-c1cnco1 [Compound 93, N-(5-bromofuran-2-ylmethyl)-3-methoxy-4-(oxazol-5-yl) benzylamine]
0.68 (≈ 1.72 µM) | COc1cc(NCc2c3ccccc3nc3ccc(C)cc23)ccc1-c1cnco1 [Compound 94, N-(2-methylacridine-9-methyl)-3-methoxy-4-(oxazol-5-yl) aniline]
0.55 (≈ 1.45 µM) | COc1cc(NCc2c3ccccc3cc3ccccc23)ccc1-c1cnco1 [Compound 95, N-(anthracen-9-ylmethyl) 3-methoxy-4-(oxazol-5-yl) aniline]
1.43 (≈ 4.76 µM) | COc1cc(NCc2ccc(CO)o2)ccc1-c1cnco1 [Compound 96]
0.23 (≈ 0.585 µM) | CCc1sc(CNc2ccc(-c3cnco3)c(OC)c2)cc1Br [Compound 97, N-(4-bromo-5-ethylthien-2-ylmethyl) 3-methoxy-4-(oxazol-5-yl) aniline]
0.88 (≈ 2.62 µM) | COc1cc(NS(=O)(=O)c2cccs2)ccc1-c1cnco1 [Compound 98, N-(thien-2-ylsulfonyl)-3-methoxy-4-oxazole-5-yl aniline]

— US20150031686A1, “PHENYL-OXAZOLYL DERIVATIVES, PREPARATION METHOD THEREOF, AND RELATED APPLICATION OF THE PHENYL-OXAZOLYL DERIVATIVES AS AN IMPDH INHIBITOR” (INSTITUTE OF MEDICINAL BIOTECHNOLOGY, CHINESE ACADEMY OF …, priority 2012, published 2015)
